Papp A→B, pIC50 and IC50 data for 28 compounds are collected here from ChEMBL document CHEMBL5356940, “The rational design of ARUK2007145, a dual inhibitor of the α and γ isoforms of the lipid kinase phosphatidylinositol 5-phosphate 4-kinase (PI5P4K)” (RSC Med Chem, 2023).

Bounds are passed on as bounds.

A short description of data set [1]: Apparent permeability across apical to basolateral side in dog MDCK-MDR1 cells. Format: ADME, cell-based, Canis lupus familiaris.
Data set [2] deals with Phosphatidylinositol 5-phosphate 4-kinase type-2 gamma (Homo sapiens, UniProt Q8TBX8).
Sequence of Phosphatidylinositol 5-phosphate 4-kinase type-2 gamma (Q8TBX8 2-421 limits assumed, change not shown): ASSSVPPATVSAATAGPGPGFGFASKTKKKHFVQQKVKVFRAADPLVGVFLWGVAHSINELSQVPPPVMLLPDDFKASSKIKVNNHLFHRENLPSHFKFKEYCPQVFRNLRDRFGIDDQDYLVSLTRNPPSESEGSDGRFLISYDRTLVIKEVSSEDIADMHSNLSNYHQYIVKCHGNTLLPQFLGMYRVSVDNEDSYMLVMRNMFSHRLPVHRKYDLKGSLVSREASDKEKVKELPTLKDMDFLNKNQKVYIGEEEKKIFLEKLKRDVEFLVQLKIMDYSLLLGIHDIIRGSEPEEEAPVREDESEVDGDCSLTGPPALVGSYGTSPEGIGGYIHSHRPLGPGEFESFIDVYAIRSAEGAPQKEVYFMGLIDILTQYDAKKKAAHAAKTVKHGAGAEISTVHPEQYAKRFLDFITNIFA
Description: Inhibition of GST-fused human recombinant chimeric PI5P4Kgamma+ harboring PI5P4Kalpha-like mutations expressed in Escherichia coli BL21(DE3) incubated for 60 mins by ADP-Glo assay
Data set [3] has as its target T1, Phosphatidylinositol 5-phosphate 4-kinase type-2 beta (Homo sapiens, UniProt P78356).
T1 sequence (P78356 whole entry): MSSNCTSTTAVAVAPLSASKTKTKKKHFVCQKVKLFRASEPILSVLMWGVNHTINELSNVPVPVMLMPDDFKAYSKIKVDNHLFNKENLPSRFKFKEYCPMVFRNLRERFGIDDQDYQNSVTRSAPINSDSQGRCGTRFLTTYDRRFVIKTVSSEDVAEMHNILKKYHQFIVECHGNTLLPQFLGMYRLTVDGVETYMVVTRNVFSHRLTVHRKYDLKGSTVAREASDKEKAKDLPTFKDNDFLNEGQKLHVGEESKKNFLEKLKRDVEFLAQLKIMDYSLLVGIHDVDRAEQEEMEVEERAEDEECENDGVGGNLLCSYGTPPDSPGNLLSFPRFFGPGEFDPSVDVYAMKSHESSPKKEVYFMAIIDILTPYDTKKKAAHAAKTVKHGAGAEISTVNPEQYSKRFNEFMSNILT
As to the kind of experiment: Inhibition of GST-fused human recombinant PI5P4Kbeta expressed in Escherichia coli BL21(DE3) incubated for 60 mins by ADP-Glo assay. (In general: ADP-Glo first removes unused ATP, then detects ADP through luciferase.)

`Cc1ccncc1-c1cc2c(Nc3ccc(S(C)(=O)=O)cc3)ncnc2s1`: the Papp A→B in data set [1] stood at 2.45 ×10⁻⁶ cm/s. The same compound showed a negative-log IC50 (pIC50) in data set [2] of 7.9. Take `CS(=O)(=O)c1ccc(Nc2ncnc3scc(Cl)c23)cc1`: the apical-to-basolateral permeability (Papp A→B) in data set [1] stood at 14.2 ×10⁻⁶ cm/s.

In data set [2], `COc1ccc(Nc2ncnc3sc(-c4cccnc4C)cc23)cc1` had a pIC50 of 5.7. In the case of `CSc1ccc(Nc2ncnc3sc(-c4ccncc4C)cc23)cc1`, the Papp A→B in data set [1] worked out at 3.7 ×10⁻⁶ cm/s. Also, the negative-log IC50 (pIC50) in data set [2] was determined as 7.7. On to `Cc1ncccc1-c1cc2ncnc(Nc3ccc(C4CC4)cc3)c2s1`, for which, in data set [1], the apparent permeability from apical to basolateral (Papp A→B) came out at 9.95 ×10⁻⁶ cm/s. This compound came in with a pIC50 in data set [2] of 7.3. Take `CSc1ccc(Nc2ncnc3sc(-c4cnoc4)cc23)cc1`: the pIC50 in data set [2] was 7.4.

As for `CCc1ccc(Nc2ncnc3sc(-c4cccnc4C)cc23)cc1`, the pIC50 in data set [2] worked out at 6.4.

Turning to `CS(=O)(=O)c1ccc(Nc2ncnc3sc(-c4cn[nH]c4)cc23)cc1`, the pIC50 in data set [2] is 7.8.

`CS(=O)(=O)c1ccc(Nc2ncnc3sc(-c4ccnc(Cl)c4)cc23)cc1` yielded a pIC50 in data set [2] of 7.2.

Regarding `Cc1ccc(Nc2ncnc3sc(-c4cccnc4C)cc23)cc1`, the negative logarithm of the IC50 (pIC50) in data set [2] was found to be 5.8.

In the case of `Cc1ncccc1-c1cc2ncnc(Nc3ccc4ncoc4c3)c2s1`, in data set [2], the pIC50 turned out to be 6.3. As to `CSc1ccc(Nc2ncnc3sc(-c4cccnc4Cl)cc23)cc1`, in data set [2], the negative-log IC50 (pIC50) amounted to 7.7. In turn, `Cc1ncccc1-c1cc2c(Nc3ccc(C4CC4)cc3)ncnc2s1` had a pIC50 in data set [2] of 7. `Cc1ccc(Nc2ncnc3sc(-c4cccnc4C)cc23)c(C)c1` yielded a pIC50 in data set [2] of 5.4. `Cc1ncccc1-c1cc2c(Nc3ccc(S(C)(=O)=O)cc3)ncnc2s1`: in data set [3], the half-maximal inhibitory concentration (IC50) is above 10 µM. For the same compound, in data set [1], the Papp A→B is 1.33 ×10⁻⁶ cm/s. In data set [2], this compound registered a pIC50 of 7.7. In data set [2], `CSc1ccc(Nc2ncnc3sc(-c4cccnc4C)cc23)cc1` showed a pIC50 of 7.3. In data set [2], `Cc1cccc(Nc2ncnc3sc(-c4cccnc4C)cc23)c1` registered a pIC50 of 5.3. Consider `CS(=O)(=O)c1ccc(Nc2ncnc3sc(-c4ccncc4)cc23)cc1`, for which the pIC50 in data set [2] came out at 7.7. Consider `COc1cnccc1-c1cc2c(Nc3ccc(S(C)(=O)=O)cc3)ncnc2s1`, for which, in data set [2], the pIC50 was determined as 7.5. In data set [2], `Cc1ccc(Nc2ncnc3sc(-c4cccnc4C)cc23)cc1C` returned a negative-log IC50 (pIC50) of 5.9. With `Cc1ncccc1-c1cc2ncnc(Nc3ccc(N4CCCC4=O)cc3)c2s1`, the Papp A→B in data set [1] was found to be 3.15 ×10⁻⁶ cm/s. The pIC50 in data set [2] was determined as 8.1. Taken in the same sequence, the figures for `CS(=O)(=O)c1ccc(Nc2ncnc3cc(-c4cccnc4Cl)sc23)cc1` were 1.33 ×10⁻⁶ cm/s and 7.9. Take `CS(=O)(=O)c1ccc(Nc2ncnc3sc(-c4cccnc4Cl)cc23)cc1`: the IC50 in data set [3] was above 10 µM. In data set [1], the apical-to-basolateral permeability (Papp A→B) is 4.73 ×10⁻⁶ cm/s. As for `CS(=O)(=O)c1ccc(Nc2ncnc3sc(-c4cccnc4)cc23)cc1`, in data set [2], the negative-log IC50 (pIC50) was 7.5. In the case of `CSc1ccc(Nc2ncnc3sc(-c4c(C)noc4C)cc23)cc1`, the negative logarithm of the IC50 (pIC50) in data set [2] is 7.6. Turning to `Cc1cnccc1-c1cc2c(Nc3ccc(S(C)(=O)=O)cc3)ncnc2s1`, in data set [3], the 50% inhibitory concentration (IC50) was above 10 µM. Moreover, in data set [1], the Papp A→B was 3.13 ×10⁻⁶ cm/s. On to `CSc1ccc(Nc2ncnc3cc(-c4cccnc4Cl)sc23)cc1`, for which the Papp A→B in data set [1] is 12.9 ×10⁻⁶ cm/s. In data set [2], this compound gave a pIC50 of 8.1.

Consider `Cn1cc(-c2cc3c(Nc4ccc(S(C)(=O)=O)cc4)ncnc3s2)cn1`, for which, in data set [3], the half-inhibitory concentration (IC50) is above 10 µM. The Papp A→B in data set [1] is 2.88 ×10⁻⁶ cm/s. In data set [2], this compound displayed a pIC50 of 7.4.

The Papp A→B is how fast a substance crosses the layer from the apical side. In general, pIC50 refers to −log10 of the IC50, conventionally taken in molar units. Lower therefore signals a high IC50. As usually defined, the IC50 is the concentration that gives 50% inhibition.
